In patent publication US20240360091A1, “GLUN2B-SUBUNIT SELECTIVE ANTAGONISTS OF THE N-METHYL-D-ASPARTATE RECEPTORS WITH ENHANCED POTENCY AT ACIDIC PH” (Emory University, priority 2021, published 2024):
Where two headings read alike, the source gives them in different places.

Columns and labels:
[1] = Plasma protein binding, rapid equilibrium dialysis, human; assay type: in vitro ADME; details: n=2
Description: Plasma protein binding was performed with a rapid equilibrium dialysis (RED) device containing dialysis membrane with a molecular weight cut-off of 8,000 Daltons according to the manufacturer's instructions (ThermoFisher, USA). The plasma samples (pH 7.4) and the test compound solution (1 or 5 μM) or reference standards (Warfarin and Propranolol, 10 μM) were combined (DMSO final conc 0.1%). 300 μL of this spiked plasma sample was added to the sample chamber, and 500 μL of blank PBS buffer (pH 7.4) was added into the buffer chamber. The RED device was sealed with adhesive film and then incubated at 37° C. with shaking at 300 rpm for 4 h. Following incubation, an aliquot (50 μL) was removed from each well (spiked plasma and buffer side) and diluted with equal volume of the corresponding opposite matrix (blank buffer or blank plasma) to nullify the matrix effect, and then extracted for analysis by LC-MS/MS. The amount of free material was determined by:
% Free=(LC-MS/MS peak area of test compound in buffer side/LC-MS/MS peak area of test compound in plasma side)×100%

[2] = target: hERG potassium channel (Homo sapiens (Human), UniProt Q12809); experiment: hERG potassium channel current, automatic patch clamp in HEK cells; assay type: cell-based; details: pH 7.4, patch clamp; read-out: Functional IC50 (μM) hERG
Description: Each test concentration was tested in two or more cells (n≥2). Duration of exposure to each test article concentration was 3 minutes. A positive control (0.5 μM […]) was used to confirm the sensitivity of the cells to an hERG inhibitor.

[3] = SAD study NP10679-101, plasma pharmacokinetics; assay type: in vivo, human
Description: Each cohort consisted of 8 subjects.
(±10° C.) until shipment.

[4] = Liver microsome stability, mouse; assay type: in vitro ADME; details: 1 μM, with cofactors, one-hour incubation at 37° C.
Description: Metabolic stability was assessed using human and mouse liver microsomes (Xenotech, USA). The final composition of the assay included 1 μM of the test compound or reference standards (imipramine and diclofenac sodium) prepared from DMSO or acetonitrile stock, so that the final concentration of DMSO and acetonitrile was 0.2% and 0.8%, respectively. The test compound was incubated with 0.5 mg/mL microsomal protein without (100 mM potassium phosphate buffer alone, pH 7.4) or with cofactors (5.0 mM glucose-6-phosphate, 0.06 U glucose-6-phosphate dehydrogenase, 2.0 mM MgCl2, 1.0 mM NADP^+/NADPH). The test compound and standards were incubated at 37° C. with human and mouse liver microsomes; aliquots of the reaction mixture (100 μL) were removed at 0, 5, 15, 30, 60 and 120 min. The reaction in the aliquots was stopped by the addition of 2.5 mL tert-butyl methyl ether and the samples were subjected to shaking for 15 min. […] The percent of the test compound remaining after the specified incubation period was calculated with respect to the peak areas of the test compound at time 0 min.
The compound and standards were incubated with human and mouse liver microsomes with or without cofactors, and the samples were extracted and analyzed using LC-MS/MS, as described above.

[5] = Pharmacokinetics in the brain compartment compared to plasma in mice; assay type: in vivo; details: BALB/c, mouse; for Cmax at 1 h: iv
Description: Formulation for pharmacokinetic studies used 2% or 10% N′,N′-dimethylacetamide, 10% propylene glycol, and 30% 2-hydroxypropyl-beta-cyclodextrin in water and a dose volume of 10 mL/kg (all routes of administration).
Here, brain samples were first washed in deionized water to remove blood, the weight recorded, then transferred into fresh 1 mL water, homogenized, and stored at −80° C. until analysis. The ratio of compound in brain (g) compared to blood (mL) was then calculated.

[6] = target: Alpha2C (Homo sapiens (Human), UniProt P18825); experiment: Off-target radioligand binding displacement (NIMH PDSP); details: pH 7.4
Description: Briefly, the compound was submitted to the NIMH PDSP and screened at a single concentration (10 μM) of test article under equilibrium conditions for ability to displace specific radioligands from binding to their targets expressed in mammalian cell membranes in vitro. Each receptor target was assayed in quadruplicate and the % inhibition of radioligand binding at each target determined at pH 7.4. […]

[7] = human, plasma, Cohort 1, 5 mg single IV
[8] = human, plasma, Cohort 2, 15 mg single IV
[9] = human, plasma, Cohort 3, 50 mg single IV
[10] = human, plasma, Cohort 4, 100 mg single IV
[11] = human, plasma, Cohort 5, 150 mg single IV
[12] = human, plasma, Cohort 6, 200 mg single IV

Alpha2C, sequence (P18825 whole entry): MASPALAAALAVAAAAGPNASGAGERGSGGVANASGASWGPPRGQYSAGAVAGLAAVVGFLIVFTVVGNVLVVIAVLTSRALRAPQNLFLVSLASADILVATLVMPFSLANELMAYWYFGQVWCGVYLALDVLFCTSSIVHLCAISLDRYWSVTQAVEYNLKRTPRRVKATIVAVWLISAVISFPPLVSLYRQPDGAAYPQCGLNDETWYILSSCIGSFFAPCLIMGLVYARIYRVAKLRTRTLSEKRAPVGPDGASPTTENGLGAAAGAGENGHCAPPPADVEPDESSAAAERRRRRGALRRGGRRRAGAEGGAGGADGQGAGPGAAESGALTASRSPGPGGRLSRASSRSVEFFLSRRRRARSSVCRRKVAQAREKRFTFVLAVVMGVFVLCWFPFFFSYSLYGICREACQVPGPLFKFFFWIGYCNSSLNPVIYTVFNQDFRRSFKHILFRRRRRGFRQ
hERG potassium channel, sequence (Q12809 whole entry): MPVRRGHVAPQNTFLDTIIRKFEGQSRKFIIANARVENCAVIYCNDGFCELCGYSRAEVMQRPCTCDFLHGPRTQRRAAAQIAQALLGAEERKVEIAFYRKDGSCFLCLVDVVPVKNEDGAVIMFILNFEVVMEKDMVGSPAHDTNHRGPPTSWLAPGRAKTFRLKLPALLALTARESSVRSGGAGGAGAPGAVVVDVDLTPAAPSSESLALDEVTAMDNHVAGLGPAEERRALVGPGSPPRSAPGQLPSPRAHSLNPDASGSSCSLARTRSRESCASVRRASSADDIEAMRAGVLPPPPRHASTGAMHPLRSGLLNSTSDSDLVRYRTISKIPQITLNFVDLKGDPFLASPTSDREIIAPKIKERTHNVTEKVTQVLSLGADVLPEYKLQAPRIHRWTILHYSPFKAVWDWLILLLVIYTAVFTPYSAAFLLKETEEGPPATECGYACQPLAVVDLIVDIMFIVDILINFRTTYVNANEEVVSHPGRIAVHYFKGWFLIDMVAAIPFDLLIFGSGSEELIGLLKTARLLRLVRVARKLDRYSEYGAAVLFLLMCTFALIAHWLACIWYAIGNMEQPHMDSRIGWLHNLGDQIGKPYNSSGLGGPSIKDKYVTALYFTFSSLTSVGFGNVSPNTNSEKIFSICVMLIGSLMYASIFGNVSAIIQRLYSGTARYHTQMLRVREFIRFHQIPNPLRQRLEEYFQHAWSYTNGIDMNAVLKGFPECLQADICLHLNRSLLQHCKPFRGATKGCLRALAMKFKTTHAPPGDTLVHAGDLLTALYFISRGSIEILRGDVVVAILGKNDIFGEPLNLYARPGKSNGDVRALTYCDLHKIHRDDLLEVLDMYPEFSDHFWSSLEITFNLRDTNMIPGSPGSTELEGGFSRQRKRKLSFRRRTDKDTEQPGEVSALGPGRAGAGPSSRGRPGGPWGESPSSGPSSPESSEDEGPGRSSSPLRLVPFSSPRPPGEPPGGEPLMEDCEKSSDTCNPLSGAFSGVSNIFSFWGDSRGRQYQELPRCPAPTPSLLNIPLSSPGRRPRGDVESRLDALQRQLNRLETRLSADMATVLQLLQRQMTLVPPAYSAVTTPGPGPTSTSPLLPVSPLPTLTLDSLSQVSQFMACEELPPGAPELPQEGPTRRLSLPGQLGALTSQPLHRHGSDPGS

bound to human plasma proteins [1]: 97.7% | AUMC(0-T) (ng*h^2/mL) ([3]; Cohort 1, 5 mg single IV): 5794 ng*h^2/mL | AUMC(0-inf) (ng*h^2/mL) ([3]; Cohort 1, 5 mg single IV): 35856 ng*h^2/mL | CL ([3]; Cohort 1, 5 mg single IV): 9.82 L/h | Cmax ([3]; Cohort 1, 5 mg single IV): 26.96 ng/mL | T1/2* ([3]; Cohort 1, 5 mg single IV, harmonic mean): 27.6 h | AUMC(0-T) (ng*h^2/mL) ([3]; Cohort 2, 15 mg single IV): 18219 ng*h^2/mL | AUMC(0-inf) (ng*h^2/mL) ([3]; Cohort 2, 15 mg single IV): 34553 ng*h^2/mL | AUMC(0-T) (ng*h^2/mL) ([3]; Cohort 3, 50 mg single IV): 61442 ng*h^2/mL | AUMC(0-inf) (ng*h^2/mL) ([3]; Cohort 3, 50 mg single IV): 114675 ng*h^2/mL | AUMC(0-T) (ng*h^2/mL) ([3]; Cohort 4, 100 mg single IV): 201642 ng*h^2/mL | AUMC(0-inf) (ng*h^2/mL) ([3]; Cohort 4, 100 mg single IV): 253651 ng*h^2/mL | AUMC(0-T) (ng*h^2/mL) ([3]; Cohort 5, 150 mg single IV): 286984 ng*h^2/mL | AUMC(0-inf) (ng*h^2/mL) ([3]; Cohort 5, 150 mg single IV): 323299 ng*h^2/mL | AUMC(0-T) (ng*h^2/mL) ([3]; Cohort 6, 200 mg single IV): 407581 ng*h^2/mL | AUMC(0-inf) (ng*h^2/mL) ([3]; Cohort 6, 200 mg single IV): 459611 ng*h^2/mL | CL ([3]; Cohort 6, 200 mg single IV): 10.39 L/h | T1/2* ([3]; Cohort 6, 200 mg single IV, harmonic mean): 17.4 h | clearance as percent of the hepatic blood flow ([3]; human hepatic blood flow 87 L/h): less than 12% | half-life ([3]; human, plasma, intravenous, SAD and MAD studies, read-out: half-life (converted)): ~20 h | clearance ([3]; human, plasma, iv, 5 mg, Cohort 1, 5 mg single IV): 164 mL/min | Cmax ([3]; human, plasma, iv, 5 mg, Cohort 1, 5 mg single IV, read-out: Cmax): 30 ± 14.8 ng/mL | clearance ([3]; human, plasma, iv, 15 mg, Cohort 2, 15 mg single IV): 200 mL/min | Cmax ([3]; human, plasma, iv, 15 mg, Cohort 2, 15 mg single IV, read-out: Cmax): 99.2 ng/mL | clearance ([3]; human, plasma, iv, 50 mg, Cohort 3, 50 mg single IV): 183 mL/min | Cmax ([3]; human, plasma, iv, 50 mg, Cohort 3, 50 mg single IV, read-out: Cmax): 415 ng/mL | clearance ([3]; human, plasma, iv, 100 mg, Cohort 4, 100 mg single IV): 183 mL/min | Cmax ([3]; human, plasma, iv, 100 mg, Cohort 4, 100 mg single IV, read-out: Cmax): 746 ng/mL | clearance ([3]; human, plasma, iv, 150 mg, Cohort 5, 150 mg single IV): 182 mL/min | Cmax ([3]; human, plasma, iv, 150 mg, Cohort 5, 150 mg single IV, read-out: Cmax): 954 ng/mL | clearance ([3]; human, plasma, iv, 200 mg, Cohort 6, 200 mg single IV): 173 mL/min | Cmax ([3]; human, plasma, iv, 200 mg, Cohort 6, 200 mg single IV, read-out: Cmax): 2070 ± 798 ng/mL | AUC(0-inf) [3, 7]: 533 ng·h/mL | AUC(0-t) [3, 7]: 335 ng·h/mL | MRT [3, 7]: 52.9 h | half-life ([3]; human, plasma, Cohort 1, 5 mg single IV, harmonic mean, read-out: T1/2* (converted)): 27.6 ± 12 h | Vd ([3]; human, plasma, Cohort 1, 5 mg single IV, read-out: Vss): 435 L | AUC(0-inf) [3, 8]: 1280 ng·h/mL | AUC(0-t) [3, 8]: 1140 ng·h/mL | MRT [3, 8]: 26.1 h | half-life ([3]; human, plasma, Cohort 2, 15 mg single IV, harmonic mean, read-out: T1/2* (converted)): 20.4 h | Vd ([3]; human, plasma, Cohort 2, 15 mg single IV, read-out: Vss): 306 L | AUC(0-inf) [3, 9]: 4680 ng·h/mL | AUC(0-t) [3, 9]: 3980 ng·h/mL | MRT [3, 9]: 23.8 h | half-life ([3]; human, plasma, Cohort 3, 50 mg single IV, harmonic mean, read-out: T1/2* (converted)): 17.8 h | Vd ([3]; human, plasma, Cohort 3, 50 mg single IV, read-out: Vss): 255 L | AUC(0-inf) [3, 10]: 9860 ng·h/mL | AUC(0-t) [3, 10]: 9370 ng·h/mL | MRT [3, 10]: 24.5 h | half-life ([3]; human, plasma, Cohort 4, 100 mg single IV, harmonic mean, read-out: T1/2* (converted)): 19.8 h | Vd ([3]; human, plasma, Cohort 4, 100 mg single IV, read-out: Vss): 259 L | AUC(0-inf) [3, 11]: 13800 ng·h/mL | AUC(0-t) [3, 11]: 13600 ng·h/mL | MRT [3, 11]: 23 h | half-life ([3]; human, plasma, Cohort 5, 150 mg single IV, harmonic mean, read-out: T1/2* (converted)): 17.9 h | Vd ([3]; human, plasma, Cohort 5, 150 mg single IV, read-out: Vss): 250 L | AUC(0-inf) [3, 12]: 20200 ng·h/mL | AUC(0-t) [3, 12]: 19700 ng·h/mL | MRT [3, 12]: 21.9 h | half-life ([3]; human, plasma, Cohort 6, 200 mg single IV, harmonic mean, read-out: T1/2* (converted)): 17.4 ± 2.8 h | Vd ([3]; human, plasma, Cohort 6, 200 mg single IV, read-out: Vss): 221 L | Vd ([3]; human, plasma, single IV 5 to 200 mg, read-out: volume of distribution): > 221 L | volume of distribution as times of the total body water space ([3]; in vivo): 4.5 times | percent remaining in mouse liver microsomes [4]: 54% | concentration at 1 h ([5]; brain, intraperitoneal, 5 mg/kg, 5 mg/kg IP, 1 hour post dosing, read-out: estimated free drug concentration in the brain): 60 to 134 nM | concentration at 2 h ([5]; brain, intraperitoneal, 5 mg/kg, 5 mg/kg IP, 2 hours post dosing, read-out: estimated free drug concentration in the brain): 51 to 103 nM | concentration at 4 h ([5]; brain, intraperitoneal, 5 mg/kg, 5 mg/kg IP, 4 hours post dosing, read-out: estimated free drug concentration in the brain): 33 to 66 nM | concentration at 8 h ([5]; brain, intraperitoneal, 5 mg/kg, 5 mg/kg IP, 8 hours post dosing, read-out: estimated free drug concentration in the brain): 28 to 56 nM | concentration at 1 h ([5]; brain, intravenous, 3 mg/kg, 3 mg/kg IV, Study 1, 1 hour, read-out: Brain Conc.): 1740 ng/g | concentration at 1 h ([5]; brain, intravenous, 3 mg/kg, 3 mg/kg IV, Study 2A (2% DMA formulation), 1 hour, read-out: Brain Conc.): 1420 ng/g | concentration at 1 h ([5]; brain, intravenous, 3 mg/kg, 3 mg/kg IV, Study 2B, 1 hour, read-out: Brain Conc.): 2100 ng/g | Cmax at 1 h ([5]; plasma, 3 mg/kg, 3 mg/kg IV, Study 1, 1 hour): 2300 ng/mL | Cmax at 1 h ([5]; plasma, 3 mg/kg, 3 mg/kg IV, Study 2A (2% DMA formulation), 1 hour): 600 ng/mL | Cmax at 1 h ([5]; plasma, 3 mg/kg, 3 mg/kg IV, Study 2B, 1 hour): 817 ng/mL | Tmax ([5]; plasma, 3 mg/kg IV, Study 1): 1 h | Ki [6]: 3.09 µM
SMILES: O=C1CCc2cc(OC[C@H](O)CN3CCN(c4ccc(C(F)(F)F)cc4)CC3)ccc2N1 [NP10679]
IC50 [2]: 0.617 µM
